Test results as given in US12486287B2, “Solid forms of a promoter of spinogenesis” (Spinogenix, Inc., priority 2019, dated 2025).
In brackets after ≈: the same amount, converted by molar mass.

How the values were obtained:
Type in all cases: physicochemical
[1] = Solid state stability evaluation (XRPD, PLM, HPLC purity after storage); conditions: for HPLC purity decrease after storage / Form change after storage (XRPD): 30° C./65% RH and 40° C./75% RH, open and closed; for Form change after storage (XRPD): up to 4 weeks; for Purity (Area %): HPLC; for Form Change: XRPD
Description: Agilent 1260 HPLC with VWD detector was utilized and detailed chromatographic conditions for purity analysis are listed ill Table 1-4.
The solid state stability of Compound I was evaluated under conditions of 30° C./65% RH (open dish and closed container) and 40° C./75% RH (open dish and closed container) for 4 weeks. The detailed procedures utilized for stability evaluation are listed: 1) Weighed about 10 mg of Compound I starting material into 3-mL glass vials; 2) For the open dish conditions, covered the vials with Parafilm® and poked 6 holes. For the closed conditions, sealed the vials with caps and kept the vials in the corresponding conditions, respectively; For the condition of 40° C./75% RH, placed the vials in the stability chamber of 40° C./75% RH; For the condition of 30° C./65% RH, placed the vials in the airtight atmosphere generated by saturated aqueous potassium iodide solution in 30° C. bio-chemical; 4) Samples taken for XRPD, PLM, and HPLC purity after 3 days, 1 week, 2 weeks and 4 weeks.
Solid state stability evaluation of Compound I Form I starting material was performed under conditions of 30° C./65% RH (closed and open) and 40° C./75% RH (closed and open). X-ray powder diffraction (XRPD), polarizing microscope (PLM) and HPLC purity were characterized at 4 sampling points (3 days, 1 week, 2 weeks, 4 weeks).
For the single crystal structure determination, 83 single crystal growth experiments were performed by different methods including slow evaporation, liquid vapor diffusion, slow cooling, heating-cooling and solvent-thermal synthesis. The stability evaluation experiments in 40° C./75% RH condition were performed using stability chamber, while the 30° C./65% RH condition was set up by saturated aqueous potassium iodide solution in 30° C. bio-chemical incubator.

[2] = Dynamic vapor sorption (DVS)
Description: DVS was measured via a SMS (Surface Measurement Systems) DVS Intrinsic. The relative humidity at 25° C. were calibrated against deliquescence point of LiCl, Mg(NO3)2 and KCl.
Compound I starting material was the delivered sample. The starting material was characterized by XRPD, thermo-gravimetric analysis (TGA), differential scanning calorimetry (DSC), PLM and dynamic vapor sorption (DVS).

[3] = Approximate solubility in single solvents at RT; conditions: thermodynamic from solid, room temperature
Description: Approximate solubility of Compound I was determined in 20 single solvents at RT. Approximately 2 mg of powder sample was added into a 3-mL glass vial. Corresponding solvents were added stepwise (50 μL→100 μL→300 μL→1000 μL) into each vial until powder solids were completely dissolved visually or a total volume of 1 mL solvent was added. Approximate solubility values were calculated based on sample mass, solvent volume, and experimental observation. Results summarized in Table 3-1 were used to guide subsequent solvent selection in the design of polymorph screening experiments.

[4] = Stability / interconversion of crystal forms (XRPD)
Description: Compound I was subjected to various crystallization conditions, including solid vapor diffusion, anti-solvent addition, liquid vapor diffusion, slow cooling, slurry conversion at various temperatures, temperature cycling, and slow evaporation. Crystalline forms of Compound I were analyzed by X-ray powder diffraction (XRPD), differential scanning calorimetry (DSC) and thermogravimetric analysis (TGA), while metastable forms were analyzed by XRPD. XRPD was performed with a Panalytical X'Pert3 Powder XRPD with a Si zero-background holder. The 2θ position was calibrated against a Panalytical Si reference standard disc.
Forms II and III only existed in the wet state and no solid was isolated for thermal analyses. Form V solids were obtained, however, Form V changed to Form I at around 50° C. upon drying in a vacuum oven. A summary of isolated forms and conditions is in Table 1-5 and Table 1-6.

[5] = 30° C./65% RH, closed container, 1 week
[6] = 30° C./65% RH, closed container, 2 weeks
[7] = 30° C./65% RH, closed container, 4 weeks
[8] = 30° C./65% RH, closed container, 3 days
[9] = 30° C./65% RH, open dish, 1 week
[10] = 30° C./65% RH, open dish, 2 weeks
[11] = 30° C./65% RH, open dish, 4 weeks
[12] = 30° C./65% RH, open dish, 3 days
[13] = 40° C./75% RH, closed container, 1 week
[14] = 40° C./75% RH, closed container, 2 weeks
[15] = 40° C./75% RH, closed container, 4 weeks
[16] = 40° C./75% RH, closed container, 3 days
[17] = 40° C./75% RH, open dish, 1 week
[18] = 40° C./75% RH, open dish, 2 weeks
[19] = 40° C./75% RH, open dish, 4 weeks
[20] = 40° C./75% RH, open dish, 3 days

OCCOCCOCCOCCOc1ccc(-c2nc3ccccc3s2)cc1 [Compound I Form I, 2-(2-(2-(2-(4-(benzo[d]thiazol-2-yl)phenoxy)ethoxy)ethoxy)ethoxy)ethan-1-ol]
HPLC purity decrease after storage ([1]; 4 weeks): No form change and significant HPLC purity decrease were observed | Form change after storage (XRPD) [1]: No form change | Purity/Initial (%) [1, 5]: 100.0% | Purity (Area %) [1, 5]: 99.66 Area % | Form Change [1, 5]: No | Purity/Initial (%) [1, 6]: 100.0% | Purity (Area %) [1, 6]: 99.64 Area % | Form Change [1, 6]: No | Purity/Initial (%) [1, 7]: 100.0% | Purity (Area %) [1, 7]: 99.66 Area % | Form Change [1, 7]: No | Purity/Initial (%) [1, 8]: 100.0% | Purity (Area %) [1, 8]: 99.68 Area % | Form Change [1, 8]: No | Purity/Initial (%) [1, 9]: 100.0% | Purity (Area %) [1, 9]: 99.66 Area % | Form Change [1, 9]: No | Purity/Initial (%) [1, 10]: 100.0% | Purity (Area %) [1, 10]: 99.63 Area % | Form Change [1, 10]: No | Purity/Initial (%) [1, 11]: 100.0% | Purity (Area %) [1, 11]: 99.66 Area % | Form Change [1, 11]: No | Purity/Initial (%) [1, 12]: 100.0% | Purity (Area %) [1, 12]: 99.69 Area % | Form Change [1, 12]: No | Purity/Initial (%) [1, 13]: 100.0% | Purity (Area %) [1, 13]: 99.66 Area % | Form Change [1, 13]: No | Purity/Initial (%) [1, 14]: 99.8% | Purity (Area %) [1, 14]: 99.45 Area % | Form Change [1, 14]: No | Purity/Initial (%) [1, 15]: 100.0% | Purity (Area %) [1, 15]: 99.65 Area % | Form Change [1, 15]: No | Purity/Initial (%) [1, 16]: 100.1% | Purity (Area %) [1, 16]: 99.76 Area % | Form Change [1, 16]: No | Purity/Initial (%) [1, 17]: 100.0% | Purity (Area %) [1, 17]: 99.66 Area % | Form Change [1, 17]: No | Purity/Initial (%) [1, 18]: 100.0% | Purity (Area %) [1, 18]: 99.63 Area % | Form Change [1, 18]: No | Purity/Initial (%) [1, 19]: 100.0% | Purity (Area %) [1, 19]: 99.65 Area % | Form Change [1, 19]: No | Purity/Initial (%) [1, 20]: 99.9% | Purity (Area %) [1, 20]: 99.61 Area % | Form Change [1, 20]: No | Form change after DVS test (XRPD) ([2]; 25° C., 0% RH-95% RH-0% RH): No form change was observed | Water uptake (DVS) ([2]; 25° C./80% RH): 0.64% | Water uptake (DVS) ([2]; 25° C./95% RH): 21.43%

OCCOCCOCCOCCOc1ccc(-c2nc3ccccc3s2)cc1 [Compound I, 2-(2-(2-(2-(4-(benzo[d]thiazol-2-yl)phenoxy)ethoxy)ethoxy)ethoxy)ethan-1-ol]
solubility ([3]; organic solvent or mixture, 1,4-dioxane): > 32 mg/mL | solubility ([3]; organic solvent or mixture, 2-MeTHF): 20 to 40 mg/mL (≈ 49.6 to 99.1 mM) | solubility ([3]; organic solvent or mixture, Acetone): 6 to 18 mg/mL (≈ 14.9 to 44.6 mM) | solubility ([3]; organic solvent or mixture, Acetonitrile): 8 to 24 mg/mL (≈ 19.8 to 59.5 mM) | solubility ([3]; organic solvent or mixture, CPME): < 2.6 mg/mL | solubility ([3]; organic solvent or mixture, DCM): > 38 mg/mL | solubility ([3]; organic solvent or mixture, DMF): > 44 mg/mL | solubility ([3]; organic solvent or mixture, DMSO): 18 to 36 mg/mL (≈ 44.6 to 89.2 mM) | solubility ([3]; organic solvent or mixture, EtOAc): 20 to 40 mg/mL (≈ 49.6 to 99.1 mM) | solubility ([3]; organic solvent or mixture, EtOH): 7.3 to 22 mg/mL (≈ 18.1 to 54.5 mM) | solubility ([3]; organic solvent or mixture, Heptane): < 2.2 mg/mL | solubility ([3]; organic solvent or mixture, IPA): < 1.9 mg/mL | solubility ([3]; organic solvent or mixture, IPAc): 1.7 to 5.7 mg/mL (≈ 4.21 to 14.1 mM) | solubility ([3]; organic solvent or mixture, MEK): 18 to 36 mg/mL (≈ 44.6 to 89.2 mM) | solubility ([3]; organic solvent or mixture, MIBK): 2.5 to 8.3 mg/mL (≈ 6.2 to 20.6 mM) | solubility ([3]; organic solvent or mixture, MTBE): < 2 mg/mL | solubility ([3]; organic solvent or mixture, MeOH): 21 to 42 mg/mL (≈ 52 to 104 mM) | solubility ([3]; organic solvent or mixture, THF): > 36 mg/mL | solubility ([3]; organic solvent or mixture, Toluene): 6 to 18 mg/mL (≈ 14.9 to 44.6 mM) | solubility ([3]; water, H2O): < 1.8 mg/mL | HPLC purity decrease after storage ([1]; 4 weeks): no significant HPLC purity decrease was observed | Form change after storage (XRPD) [1]: no form change was observed

OCCOCCOCCOCCOc1ccc(-c2nc3ccccc3s2)cc1 [Compound I Form II, 2-(2-(2-(2-(4-(benzo[d]thiazol-2-yl)phenoxy)ethoxy)ethoxy)ethoxy)ethan-1-ol]
Stability of crystal form (conversion on storage, air exposure or drying) ([4]; listed as Form II): changed to a mixture of Form II and C or a mixture of Form III and Form V upon storage

OCCOCCOCCOCCOc1ccc(-c2nc3ccccc3s2)cc1 [Compound I Form V, 2-(2-(2-(2-(4-(benzo[d]thiazol-2-yl)phenoxy)ethoxy)ethoxy)ethoxy)ethan-1-ol]
Stability of crystal form (conversion on storage, air exposure or drying) ([4]; listed as Form V): converted to Form I upon vacuum drying at ˜50 °C

OCCOCCOCCOCCOc1ccc(-c2nc3ccccc3s2)cc1 [Compound I Form III, 2-(2-(2-(2-(4-(benzo[d]thiazol-2-yl)phenoxy)ethoxy)ethoxy)ethoxy)ethan-1-ol]
Stability of crystal form (conversion on storage, air exposure or drying) ([4]; listed as Form III): quickly converted to Form I upon exposure to open air
